Measurements taken from publication PMC8871760, “Assessment of Five Pesticides as Endocrine-Disrupting Chemicals: Effects on Estrogen Receptors and Aromatase” (International Journal of Environmental Research and Public …, 2022).

Biological target: T1, recombinant form of human aromatase (Homo sapiens, UniProt P11511)
T1 construct: gene CYP19A1; purified recombinant; assayed with equimolar human CPR; with NADPH--cytochrome P450 reductase
T1 sequence (P11511 1-503): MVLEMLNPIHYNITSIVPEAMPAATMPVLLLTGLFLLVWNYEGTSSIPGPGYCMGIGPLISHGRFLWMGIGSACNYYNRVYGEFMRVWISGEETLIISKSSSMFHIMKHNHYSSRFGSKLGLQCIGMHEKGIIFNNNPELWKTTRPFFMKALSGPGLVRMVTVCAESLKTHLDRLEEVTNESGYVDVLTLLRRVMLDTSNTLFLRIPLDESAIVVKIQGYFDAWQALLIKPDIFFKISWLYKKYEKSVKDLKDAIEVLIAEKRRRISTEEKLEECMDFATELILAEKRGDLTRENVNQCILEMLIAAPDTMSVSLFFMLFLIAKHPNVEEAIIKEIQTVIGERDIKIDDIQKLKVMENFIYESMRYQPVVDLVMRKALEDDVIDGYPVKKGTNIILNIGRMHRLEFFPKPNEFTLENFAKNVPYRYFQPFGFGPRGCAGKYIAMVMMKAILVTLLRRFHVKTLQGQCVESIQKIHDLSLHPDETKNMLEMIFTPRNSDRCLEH
T1 sequence (P16435 2-677 partner): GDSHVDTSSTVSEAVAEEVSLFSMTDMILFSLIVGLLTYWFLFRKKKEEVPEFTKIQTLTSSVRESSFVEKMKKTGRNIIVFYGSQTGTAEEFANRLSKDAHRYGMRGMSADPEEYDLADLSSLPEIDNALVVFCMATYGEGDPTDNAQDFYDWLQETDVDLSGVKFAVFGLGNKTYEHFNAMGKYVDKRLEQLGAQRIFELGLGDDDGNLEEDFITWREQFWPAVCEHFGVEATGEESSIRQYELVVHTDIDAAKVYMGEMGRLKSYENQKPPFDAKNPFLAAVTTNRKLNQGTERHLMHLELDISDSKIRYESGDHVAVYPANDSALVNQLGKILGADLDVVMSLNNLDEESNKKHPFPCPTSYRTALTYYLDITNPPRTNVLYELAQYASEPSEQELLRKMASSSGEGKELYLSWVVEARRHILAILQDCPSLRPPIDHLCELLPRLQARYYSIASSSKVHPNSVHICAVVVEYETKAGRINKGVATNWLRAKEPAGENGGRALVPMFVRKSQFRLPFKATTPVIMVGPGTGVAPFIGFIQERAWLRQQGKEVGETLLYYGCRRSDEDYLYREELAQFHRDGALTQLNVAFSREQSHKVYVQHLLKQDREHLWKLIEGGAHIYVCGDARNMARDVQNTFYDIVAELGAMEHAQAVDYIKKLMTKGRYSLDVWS
Test: estrone ELISA of aromatase reaction
Assay type: biochemical
Settings: read-out: Relative Activity (% of C+) / 5 × 10^-6 M
Text: estrone ELISA of aromatase reaction on recombinant form of human aromatase

Row | Structure (SMILES) | activity at 5 µM
1 | CC(C)Oc1cc(-n2nc(C(C)(C)C)oc2=O)c(Cl)cc1Cl [Oxadiazon] | 101 ± 16.7%
2 | CN/C(=N\[N+](=O)[O-])NCc1cnc(Cl)s1 [Clothianidin] | 97.9 ± 5.2%
3 | C/C(=N\C#N)N(C)Cc1ccc(Cl)nc1 [Acetamiprid] | 87.5 ± 17.6%
4 | CNC(=O)Oc1cc(C)c(SC)c(C)c1 [Methiocarb] | 90.9 ± 5.4%
5 | CN1COCN(Cc2cnc(Cl)s2)C1=N[N+](=O)[O-] [Thiamethoxam] | 95.6 ± 17.1%
